# Columns and labels:
# [1] = test system: Digitaria sanguinalis; assay: LTP post-emergence greenhouse screen
# Description: (§5) A basic panel of eight weed species (Table 3) sowed in 4×4×7 cm plastic pots containing a garden mix (klasmann). Each specie was sowed in a separate pot. In each pot, 10-15 seeds were sowed according to the specie viability. Timing of application determined at a 1-2 true leaf stage. The plants grew for 30 days in a controlled greenhouse (26±2° C. day, 20±2° C. night). Flood irrigation (tap water+Shefer 5:3:8 8 mM) was given at a 50% water content by weight. Two days before application, the tested plants thinned down to three plants per pot. Compounds were soluble in water (DDW), and commercial herbicide control was soluble in formulation B (Table 4). Before application, 1% (v/v) crop oil and 0.02% (v/v) surfactant (Tergitol™ 15-S-7) were added to the solution. Application was conducted with an industrial sprayer (TeeJet 6502E nozzle) at a rate of 2 kg/ha and spray volume of 4801/ha. Plants were evaluated at 3 time points (4, 8, 12 days after application (DAA)). At each time point, visual phenotyping was recorded using a scale of 0-6 (0: no visible effect, 6: maximum effect). At 12 DAA, plants foliage was harvested, dried and weighed for dry weight analysis.
# (§6) Post-emergence advanced wide panel experiment included 24 weed species (Table 5). Application was conducted at 2 rates of 2 kg/ha and 0.25 kg/ha and spray volume of 480 l/ha. Visual phenotyping was recorded at 4, 11, 17 and 20 DAA using a scale of 0-6 (0: no visible effect, 6: maximum effect). At 21 DAA, plants foliage was harvested, dried, and weighed for dry weight analysis. All experiments included an untreated control, a solvent control, and a positive control (commercial herbicide A.I.). Statistical analysis for visual phenotyping determined by a median value of ≥3.5 and Fisher test (pval≤0.05). Statistical analysis for dry weight determined by % inhibition ≥50 and T test (pval≤0.05), as well as Wilcox test (pval≤0.05).
# [2] = test system: Poa annua; assay: LTP post-emergence greenhouse screen
# Description: as §5, §6
# [3] = test system: Echinochloa colona; assay: LTP post-emergence greenhouse screen
# Description: as §5, §6
# [4] = test system: Echinochloa crus-galli; assay: LTP post-emergence greenhouse screen
# Description: as §5
# (§7) All experiments included an untreated control, a solvent control, and a positive control (commercial herbicide A.I.). Statistical analysis for visual phenotyping determined by a median value of ≥3.5 and Fisher test (pval≤0.05). Statistical analysis for dry weight determined by % inhibition ≥50 and T test (pval≤0.05), as well as Wilcox test (pval≤0.05).
# [5] = test system: Lolium multiflorum; assay: LTP post-emergence greenhouse screen
# Description: (§8) A basic panel of eight weed species (Table 3) sowed in 4×4×7 cm plastic pots containing a garden mix (klasmann). Each specie was sowed in a separate pot. In each pot, 10-15 seeds were sowed according to the specie viability. Timing of application determined at a 1-2 true leaf stage. The plants grew for 30 days in a controlled greenhouse (26±2° C. day, 20±2° C. night). Flood irrigation (tap water+Shefer 5:3:8 8 mM) was given at a 50% water content by weight. Two days before application, the tested plants thinned down to three plants per pot. Compounds were soluble in water (DDW), and commercial herbicide control was soluble in formulation B (Table 4). Before application, 1% (v/v) crop oil and 0.02% (v/v) surfactant (Tergitol™ 15-S-7) were added to the solution. […] Plants were evaluated at 3 time points (4, 8, 12 days after application (DAA)). At each time point, visual phenotyping was recorded using a scale of 0-6 (0: no visible effect, 6: maximum effect). […]
# as §7
# [6] = test system: Alopecurus monureide's; assay: LTP post-emergence greenhouse screen
# Description: as §5, §6
# [7] = test system: Digitaria sanguinalis; assay: LTP pre-emergence greenhouse screen; format: in vivo
# Description: (§1) Sowing was performed one day before application.
# (§2) Percentage of emergence was evaluated at 15 DAA.
# [8] = test system: Echinochloa colona; assay: LTP pre-emergence greenhouse screen; format: in vivo
# Description: as §1, §2
# [9] = test system: Echinochloa crus-galli; assay: LTP pre-emergence greenhouse screen; format: in vivo
# Description: as §1, §2
# [10] = test system: Lolium multiflorum; assay: LTP pre-emergence greenhouse screen; format: in vivo
# Description: as §1, §2
# [11] = test system: Lolium perenne; assay: LTP pre-emergence greenhouse screen; format: in vivo
# Description: as §1, §2
# [12] = test system: Alopecurus myosuroides; assay: LTP pre-emergence greenhouse screen; format: in vivo
# Description: as §1, §2
# [13] = test system: Phalaris paradoxa; assay: LTP pre-emergence greenhouse screen; format: in vivo
# Description: as §1, §2
# [14] = test system: Poa annua; assay: LTP pre-emergence greenhouse screen; format: in vivo
# Description: as §1, §2
# [15] = test system: Lolium perenne; assay: LTP post-emergence greenhouse screen
# Description: as §8, §7
# [16] = test system: monocot and eudicot weeds species; assay: LTP weed panel, summary in words; format: in vivo; conditions: for growth inhibition (in words): mainly in pre-emergence applications
# [17] = test system: Setaria viridis; assay: LTP post-emergence greenhouse screen
# Description: as §5, §6
# [18] = test system: Arabidopsis thaliana; assay: HTPS post-emergence on miniature dicot model plants; format: in vivo; conditions: green area (RGB), maximal concentration 1.5 kg/ha, read-out: Max inhibition (%)
# Description: Arabidopsis thaliana seeds were sown in 96 well plates filled with irrigated Sweet sand (10%>clay) that is washed from salts and minerals using tap water. 5-10 seeds were sown in the center of each well. 7-8 days post sowing, at 2 true leaves stage, thinning out was performed to ensure that compound application is done on a single plant per well. The plates were placed in a controlled greenhouse in a random order inside a bath which allows flooding irrigation with tap water supplemented with a fertilizer. Applied compounds were dissolved into a final solution of 50% acetone, 49.9% DDW, 0.1% tween-20. A 96 well plate was used as a stock plate for preparing application solutions for 8 repeats. Each row contained different concentrations per chemical. Maximal concentration for application was 1.5 kg/ha and dilution factor is 2.5. Chemical application was performed one day after thinning out in a chemical hood. 5 μL applied on first two true leaves in each well using 12 channel pipettes. Data collection: RGB (red, green, blue) data for green area per well was documented using camera. Data is collected at a few time points during the experiment: one day after thinning and before chemical application, two-, six- or nine-days post application. During the last two documentations, visual phenotyping was performed. Data analysis: Given RGB results and visual phenotype scores, a student t-test conducted to compare between treatment and control performance for continuous data (RGB) and Fisher exact test to analyze the non-continuous data (phenotypic scores). Dose-Response curves are generated for each treatment to infer ED50 and max. inhibition parameters, using treatment's log concentration range as the […] variable and normalized green area. Plate imaging performed at 11 and 18 DAA. RGB data for green area per well was documented and used to extract % inhibition. Dose-Response curves were built for each treatment to infer EC50, EC75 and EC90 parameters, using treatment's log concentration range as the independent variable and normalized green area as the dependent variable. Treatments were compared to controls performance given RGB results and using student's t-test (p-val≤0.05). Compounds 101, 110, 112, 119, 124, 125, 146, 154, 157, 172, 170, 169, 112, and 166 were applied in either or both pre- and post-emergence mode to either or both monocot and dicot model plants, following the methods described above. The compounds were applied as a gradient of concentrations as listed above, from which the ED50 was calculated.
# [19] = test system: monocot and dicot model plants; assay: HTPS model plants, summary in words; format: in vivo; conditions: HTPS systems where they were tested
# Description: Arabidopsis thaliana seeds were sown in 96 well plates filled with irrigated Sweet sand (10%>clay) that is washed from salts and minerals using tap water. 5-10 seeds were sown in the center of each well. 7-8 days post sowing, at 2 true leaves stage, thinning out was performed to ensure that compound application is done on a single plant per well. The plates were placed in a controlled greenhouse in a random order inside a bath which allows flooding irrigation with tap water supplemented with a fertilizer. Applied compounds were dissolved into a final solution of 50% acetone, 49.9% DDW, 0.1% tween-20.
# A 96 well plate was used as a stock plate for preparing application solutions for 8 repeats. Each row contained different concentrations per chemical. Maximal concentration for application was 1.5 kg/ha and dilution factor is 2.5. Chemical application was performed one day after thinning out in a chemical hood. 5 μL applied on first two true leaves in each well using 12 channel pipettes. […]
# (§3) Compounds 101, 110, 112, 119, 124, 125, 146, 154, 157, 172, 170, 169, 112, and 166 were applied in either or both pre- and post-emergence mode to either or both monocot and dicot model plants, following the methods described above. The compounds were applied as a gradient of concentrations as listed above, from which the ED50 was calculated.
# [20] = test system: Amaranthus tuberculatus; assay: LTP post-emergence greenhouse screen; format: in vivo
# [21] = test system: Matricaria chamomilla; assay: LTP pre-emergence greenhouse screen; format: in vivo
# Description: as §1, §2
# [22] = test system: Amaranthus palmeri; assay: LTP pre-emergence greenhouse screen; format: in vivo
# Description: as §1, §2
# [23] = test system: Galium aparine; assay: LTP post-emergence greenhouse screen
# Description: as §8, §7
# [24] = test system: Eragrostis teff; assay: HTPS pre-emergence on monocot model plants; format: in vivo; conditions: green area (RGB)
# Description: (§4) A 96 well plate was used as a stock plate for preparing application solutions for 8 repeats. Each row contained different concentrations per chemical. Maximal concentration for application was 1.5 kg/ha and dilution factor is 2.5. Chemical application was performed one day after thinning out in a chemical hood. 5 μL applied on first two true leaves in each well using 12 channel pipettes. Data collection: RGB (red, green, blue) data for green area per well was documented using camera. Data is collected at a few time points during the experiment: one day after thinning and before chemical application, two-, six- or nine-days post application. During the last two documentations, visual phenotyping was performed. Data analysis: Given RGB results and visual phenotype scores, a student t-test conducted to compare between treatment and control performance for continuous data (RGB) and Fisher exact test to analyze the non-continuous data (phenotypic scores). Dose-Response curves are generated for each treatment to infer ED50 and max. inhibition parameters, using treatment's log concentration range as the dependent variable and normalized green area.
# These experiments are conducted similarly except that either Arabidopsis thaliana or Eragrostis teff seeds were sowed (5-10 or 5-7, respectively), plant thinning out was not performed, compound dissolved into a final solution of 50% acetone, 49.9% DDW, compound application was done at 30 μL volume per well directly on sowed soil before plant emergence and data was collected 10 or 7 days after chemical application on dicot or monocot plants, respectively.
# Plate imaging performed at 11 and 18 DAA. RGB data for green area per well was documented and used to extract % inhibition. […]
# as §3
# [25] = test system: Arabidopsis thaliana; assay: HTPS pre-emergence on dicot model plants; format: in vivo; conditions: green area (RGB)
# Description: as §4, with “Dose-Response curves are generated for each treatment to infer ED50 and max. inhibition parameters, using treatment's log concentration range as the dependent variable and normalized green area.” left out
# as §3
# [26] = test system: Amaranthus palmeri; assay: LTP post-emergence greenhouse screen
# Description: as §8, §7
# [27] = test system: Amaranthus retroflexus; assay: LTP pre-emergence greenhouse screen; format: in vivo
# Description: as §1, §2
smiles,measurement,setting,value
CC(O)C(N)C/C=C/CC(=O)O (stereo not shown) [Compound 101],DAB: disturbed apical bud,[1],"IG (80), DAB (80),"
same,Drd: disturbed root growth,[1],Drd (80)
same,IG: inhibited growth,[1],"IG (80), DAB (80),"
same,Drd: disturbed root growth,[2],"IG (80), Drd (80)"
same,IG: inhibited growth,[2],"IG (80), Drd (80)"
same,DAB: disturbed apical bud,[3],60
same,Drd: disturbed root growth,[3],Drd (80)
same,IG: inhibited growth,[3],80
same,DAB: disturbed apical bud,[4],60
same,Drd: disturbed root growth,[4],Drd (80)
same,IG: inhibited growth,[4],80
same,Drd: disturbed root growth,[5],Drd (60)
same,Bl: bleaching,[6],60
same,DAB: disturbed apical bud,[6],"IG (80), DAB (80),"
same,Drd: disturbed root growth,[6],80
same,IG: inhibited growth,[6],"IG (80), DAB (80),"
same,IG: inhibited growth,[7],IG (100)
same,IG: inhibited growth,[8],IG (100)
same,IG: inhibited growth,[9],IG (100)
same,IG: inhibited growth,[10],IG (100)
same,IG: inhibited growth,[11],IG (80)
same,IG: inhibited growth,[12],IG (80)
same,IG: inhibited growth,[13],IG (80)
same,IG: inhibited growth,[14],IG (100)
same,Drd: disturbed root growth,[15],80
same,IG: inhibited growth,[15],60
same,control of weeds (in words),"[16]; monocot and eudicot weeds species, post-emergence and pre-emergence, most of the species tested",excellent control
same,DAB: disturbed apical bud,[17],"IG (60), DAB (60)"
same,IG: inhibited growth,[17],"IG (60), DAB (60)"
same,inhibition at up to 1500 g/ha,[18],100%
same,control (in words),[19],excellent to very good control
C[C@@H](O)[C@@H](N)/C=C/C=C/C(=O)O [Compound 110],Drd: disturbed root growth,[20],Drd (80)
same,IG: inhibited growth,[21],IG (60)
same,IG: inhibited growth,[14],IG (60)
same,IG: inhibited growth,[22],IG (80)
same,Bl: bleaching,[23],Bl (60)
same,activity on dicots and monocots (in words),[16]; applied pre-emergence,good to moderate activity
same,inhibition at up to 1500 g/ha,[18],100%
same,control (in words),[19],excellent to very good control
NC1(C/C=C/CC(=O)O)CC1 [Compound 112],inhibition at up to 1500 g/ha,[18],87.5%
same,Max inhibition (%),[24],51%
same,Max inhibition (%),[25],100%
NC1CCC/C(=C\CCC(=O)O)C1 (stereo not shown) [Compound 119],IG: inhibited growth,[8],IG (60)
same,IG: inhibited growth,[22],IG (80)
same,growth inhibition (in words),[16],very good to moderate growth inhibition
same,inhibition at up to 1500 g/ha,[18],100%
NC1CCCC(/C=C/CC(=O)O)C1 (stereo not shown) [Compound 124],IG: inhibited growth,[8],IG (100)
same,IG: inhibited growth,[12],IG (80)
same,IG: inhibited growth,[14],IG (100)
same,IG: inhibited growth,[22],IG (80)
same,growth inhibition (in words),[16],very good to moderate growth inhibition
same,inhibition at up to 1500 g/ha,[18],100%
NC1(C/C=C/CC(=O)O)CCC1 [Compound 125],IG: inhibited growth,[2],IG (60)
same,IG: inhibited growth,[26],IG (60)
same,IG: inhibited growth,[11],IG (80)
same,IG: inhibited growth,[12],IG (60)
same,IG: inhibited growth,[21],IG (60)
same,IG: inhibited growth,[14],IG (100)
same,IG: inhibited growth,[22],IG (80)
same,growth inhibition (in words),[16],very good to moderate growth inhibition
same,IG: inhibited growth,[17],IG (60)
same,inhibition at up to 1500 g/ha,[18],100%
NC(C/C=C/CC(=O)O)C1CC1 (stereo not shown) [Compound 146],IG: inhibited growth,[12],IG (60)
same,IG: inhibited growth,[14],IG (60)
same,IG: inhibited growth,[22],IG (80)
same,growth inhibition (in words),[16],very good to moderate growth inhibition
same,inhibition at up to 1500 g/ha,[18],100%
same,Max inhibition (%),[24],100%
NC1CCCC(C#CCC(=O)O)C1 (stereo not shown) [Compound 154],IG: inhibited growth,[8],IG (100)
same,IG: inhibited growth,[12],IG (80)
same,IG: inhibited growth,[14],IG (100)
same,IG: inhibited growth,[22],IG (80)
same,growth inhibition (in words),[16],very good to moderate growth inhibition
same,inhibition at up to 1500 g/ha,[18],100%
CC(C)C(N)C/C=C/CC(=O)O (stereo not shown) [Compound 157],inhibition at up to 1500 g/ha,[18],100%
CCCC(N)C/C=C/CC(=O)O (stereo not shown) [Compound 166],inhibition at up to 1500 g/ha,[18],75%
same,Max inhibition (%),[24],47%
CC(N)CC/C=C/CC(=O)O (stereo not shown) [Compound 169],IG: inhibited growth,[27],IG (80)
same,inhibition at up to 1500 g/ha,[18],100%
CC(N)CCC/C=C/C(=O)O (stereo not shown) [Compound 170],IG: inhibited growth,[27],IG (90)
same,inhibition at up to 1500 g/ha,[18],100%
CC(O)C(N)/C=C/CCC(=O)O (stereo not shown) [Compound 172],inhibition at up to 1500 g/ha,[18],100%

# From patent US20250212875A1, “PESTICIDAL AND HERBICIDAL COMPOUNDS AND METHODS OF USE THEREOF” (AG PLENUS LTD, priority 2022, published 2025)
